Assay results as given in patent US11185074B2, “Microbiocidal quinoline (thio)carboxamide derivatives” (SYNGENTA PARTICIPATIONS AG, priority 2017, dated 2021).

Legend:
[1] = system: Gibberella zeae (Fusarium graminearum); test: whole plant or invertebrate; format: in vivo; details: in Triticum aestivum, 144 h, read-out: control of Gibberella zeae
Fusarium culmorum [2] = test: microbe, parasite or virus in culture; format: cell-based; details: read-out: control of Fusarium culmorum
[3] = system: Magnaporthe grisea (Pyricularia oryzae); test: microbe, parasite or virus in culture; format: cell-based; details: 72 h, read-out: control of Magnaporthe grisea
[4] = system: Botryotinia fuckeliana (Botrytis cinerea); test: Botryotinia fuckeliana (Botrytis cinerea) / liquid culture (gray mould); format: cell-based; details: 72 h, 20 ppm, liquid culture, inhibition of growth photometrically 3-4 days after application, compared to untreated control, read-out: control of Botryotinia fuckeliana
[5] = system: Glomerella lagenarium (Colletotrichum lagenarium); test: Glomerella lagenarium (Colletotrichum lagenarium) / liquid culture (anthracnose); format: cell-based; details: Colletotrichum orbiculare; 20 ppm; liquid culture, inhibition of growth photometrically 3-4 days after application; compared to untreated control; read-out: control of Glomerella lagenarium
[6] = system: Magnaporthe grisea (Pyricularia oryzae); test: whole plant or invertebrate; format: in vivo; details: foliar, read-out: control of Magnaporthe grisea
Fusarium culmorum [7] = test: whole plant or invertebrate; format: in vivo, Fusarium culmorum on wheat spikelets cv. Monsun; details: in Triticum aestivum, read-out: control of Fusarium culmorum
[8] = system: Monographella nivalis (Microdochium nivale); test: Monographella nivalis (Microdochium nivale) / liquid culture (foot rot cereals); format: cell-based; details: 96 h, inhibition of growth photometrically 4-5 days after application, compared to untreated control
Sclerotinia sclerotiorum = Sclerotinia sclerotiorum / liquid culture (cottony rot); details: 72 h, read-out: control of Sclerotinia sclerotiorum
Experimental: Sclerotinia sclerotiorum/Liquid Culture (Cottony Rot)
Mycelia fragments of a newly grown liquid culture of the fungus are directly mixed into nutrient broth (Vogels broth). After placing a (DMSO) solution of test compound into a microtiter plate (96-well format) the nutrient broth containing the fungal material is added. The test plates are incubated at 24° C. and the inhibition of growth is determined photometrically 3-4 days after application.

SMILES | pest or weed control at 200 ppm [1] [%] | inhibition of growth at 20 ppm (Fusarium culmorum [2]) [%] | inhibition of growth at 20 ppm [3] [%] | inhibition of growth at 20 ppm [4] [%] | inhibition of growth at 20 ppm [5] [%] | pest or weed control at 200 ppm [6] [%] | pest or weed control at 200 ppm (Fusarium culmorum [7]) [%] | inhibition of growth at 20 ppm [8] [%] | melting point [°C] | inhibition of growth at 20 ppm (Sclerotinia sclerotiorum) [%]
CC1(C[C@@](C)(CC(F)(F)F)NC(=O)c2cnc3c(F)cccc3c2)CC1 [F-2, 8-fluoro-N-[(1S)-3,3,3-trifluoro-1-methyl-1-[(1-methylcyclo-propyl)meth-yl]propyl]quinoline-3-carboxamide] | ≥ 80 | ≥ 80 | ≥ 80 | ≥ 80 | ≥ 80 | ≥ 80 | ≥ 80 | ≥ 80 |  | 
Cc1cccc2cc(C(=O)NC(C)(CC3CCCCC3)CC(F)(F)F)cnc12 (stereo not drawn) [E-61] |  | ≥ 80 | ≥ 80 | ≥ 80 | ≥ 80 | ≥ 80 |  | ≥ 80 | 107 to 110 | ≥ 80
CC(CC1CCCCC1)(CC(F)(F)F)NC(=O)c1cnc2c(F)c(F)ccc2c1 (stereo not drawn) [E-58] |  | ≥ 80 | ≥ 80 | ≥ 80 | ≥ 80 | ≥ 80 |  | ≥ 80 | 99 to 102 | ≥ 80
CC(CC1CCCCC1)(CC(F)(F)F)NC(=O)c1cnc2c(F)cccc2c1 (stereo not drawn) [E-62] |  | ≥ 80 | ≥ 80 | ≥ 80 | ≥ 80 | ≥ 80 |  | ≥ 80 | 55 to 76 | ≥ 80
C=C(C)CC(C)(CC(=C)C)NC(=O)c1cnc2c(F)c(F)ccc2c1 [E-56] |  | ≥ 80 | ≥ 80 | ≥ 80 | ≥ 80 | ≥ 80 |  | ≥ 80 | 117 to 120 | ≥ 80
C[C@@](CC1CCCC1)(CC(F)(F)F)NC(=O)c1cnc2c(F)cccc2c1 [F-4, N-[(1R)-1-(cyclopentylmeth-yl)-3,3,3-trifluoro-1-methyl-propyl]-8-fluoro-quinoline-3-carboxamide] |  | ≥ 80 | ≥ 80 | ≥ 80 | ≥ 80 | ≥ 80 |  | ≥ 80 | 100 to 101 | ≥ 80
CC(CC1CCCC1)(CC(F)(F)F)NC(=O)c1cnc2c(F)cccc2c1 (stereo not drawn) [E-59] | ≥ 80 | ≥ 80 | ≥ 80 | ≥ 80 | ≥ 80 | ≥ 80 | ≥ 80 | ≥ 80 | 100 to 102 | ≥ 80
C=C(Cl)CC(C)(CC1CCCCC1)NC(=O)c1cnc2c(F)cccc2c1 (stereo not drawn) [E-37] |  | ≥ 80 | ≥ 80 | ≥ 80 | ≥ 80 | ≥ 80 | ≥ 80 | ≥ 80 | 109 to 111 | ≥ 80
CC(CC1CCCC1)(CC(F)(F)F)NC(=O)c1cnc2c(F)c(F)ccc2c1 (stereo not drawn) [E-57] |  | ≥ 80 | ≥ 80 | ≥ 80 | ≥ 80 | ≥ 80 |  | ≥ 80 | 115 to 116 | ≥ 80
